The record followed here is publication PMC10847513, “Plastid ancestors lacked a complete Entner-Doudoroff pathway, limiting plants to glycolysis and the pentose phosphate pathway” (Nature Communications, 2024).

Assay [1] addresses T1, E. coli EDD (Escherichia coli, UniProt P0ADF6).
T1 construct: full length, His-tagged (pET28), E. coli BL21(DE3), Ni-NTA
T1 sequence (P0ADF6 1-603): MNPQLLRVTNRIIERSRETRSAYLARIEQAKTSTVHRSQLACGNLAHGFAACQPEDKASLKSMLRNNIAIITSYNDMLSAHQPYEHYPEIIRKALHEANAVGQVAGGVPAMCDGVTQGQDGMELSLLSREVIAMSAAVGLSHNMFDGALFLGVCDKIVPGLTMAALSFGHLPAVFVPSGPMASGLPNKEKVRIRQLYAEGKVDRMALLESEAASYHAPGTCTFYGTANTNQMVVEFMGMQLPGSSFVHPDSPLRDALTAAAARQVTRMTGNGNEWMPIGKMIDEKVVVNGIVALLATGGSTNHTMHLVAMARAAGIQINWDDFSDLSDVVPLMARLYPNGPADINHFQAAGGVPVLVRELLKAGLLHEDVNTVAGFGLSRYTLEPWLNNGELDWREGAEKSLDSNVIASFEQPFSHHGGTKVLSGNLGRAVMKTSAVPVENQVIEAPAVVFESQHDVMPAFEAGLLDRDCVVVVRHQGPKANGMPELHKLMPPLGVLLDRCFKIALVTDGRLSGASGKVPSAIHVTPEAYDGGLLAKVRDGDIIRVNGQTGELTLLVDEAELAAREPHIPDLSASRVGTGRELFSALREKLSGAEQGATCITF
Nature of the assay: LCMS/MS product assay. The class given is biochemical. The note with it: pH 8.0, 30 °C, 100 mM Tris-HCl, 10 mM MgCl2, 1 mM DTT; 4.4 mM substrate; dehydration to KDPG.

For assay [2], the target named is T2, GmEDA (soybean KDPG aldolase, pseudomature) (Glycine max, UniProt K7LFS1).
T2 construct: gene LOC100800025
T2 sequence (K7LFS1 1-256): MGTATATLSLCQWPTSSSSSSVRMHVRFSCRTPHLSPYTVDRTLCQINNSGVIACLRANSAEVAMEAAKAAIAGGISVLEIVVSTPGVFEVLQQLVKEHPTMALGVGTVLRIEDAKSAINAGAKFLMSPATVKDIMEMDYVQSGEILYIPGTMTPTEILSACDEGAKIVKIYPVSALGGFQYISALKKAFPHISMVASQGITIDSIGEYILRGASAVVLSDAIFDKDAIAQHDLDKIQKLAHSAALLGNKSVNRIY
Nature of the assay: LCMS/MS product assay, Lineweaver-Burk. In kind it is biochemical. The note with it: pH 8.0, 30 °C, 50 mM KH2PO4, 100 mM NaCl, 1 mM DTT; substrate 0.25-1 mM; aldol cleavage.

The target in assay [3] is T3, E. coli DHAD (Escherichia coli, UniProt P05791).
T3 construct: gene ilvD; full length, His-tagged (pET28), E. coli BL21(DE3), Ni-NTA
T3 sequence (P05791 2-616): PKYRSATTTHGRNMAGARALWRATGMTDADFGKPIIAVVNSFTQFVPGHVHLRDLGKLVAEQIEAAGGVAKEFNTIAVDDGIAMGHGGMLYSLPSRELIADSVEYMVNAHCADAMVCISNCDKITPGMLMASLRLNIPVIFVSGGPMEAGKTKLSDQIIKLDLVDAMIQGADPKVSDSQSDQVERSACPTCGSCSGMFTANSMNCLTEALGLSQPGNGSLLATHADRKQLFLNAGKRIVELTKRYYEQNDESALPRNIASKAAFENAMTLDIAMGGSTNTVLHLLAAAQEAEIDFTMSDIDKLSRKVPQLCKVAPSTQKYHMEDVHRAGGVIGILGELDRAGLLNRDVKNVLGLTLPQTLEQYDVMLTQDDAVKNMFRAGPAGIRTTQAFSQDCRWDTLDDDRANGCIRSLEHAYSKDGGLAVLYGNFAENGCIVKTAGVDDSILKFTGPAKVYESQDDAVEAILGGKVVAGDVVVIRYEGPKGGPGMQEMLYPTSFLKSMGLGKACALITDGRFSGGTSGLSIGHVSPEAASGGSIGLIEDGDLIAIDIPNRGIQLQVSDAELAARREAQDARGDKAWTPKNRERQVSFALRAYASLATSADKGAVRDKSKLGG
Nature of the assay: LCMS/MS product assay. The following applies: pH 8.0, 30 °C, 100 mM Tris-HCl, 10 mM MgCl2, 1 mM DTT; 4.4 mM substrate; dehydration to 2-ketoisovalerate. The class given is biochemical.

Assay [4] addresses E. coli EDA (Escherichia coli, UniProt P0A955). The following applies: pH 8.0, 30 °C, 50 mM KH2PO4, 100 mM NaCl, 1 mM DTT; aldol cleavage to GAP and pyruvate.

E. coli EDA, sequence (P0A955 whole entry): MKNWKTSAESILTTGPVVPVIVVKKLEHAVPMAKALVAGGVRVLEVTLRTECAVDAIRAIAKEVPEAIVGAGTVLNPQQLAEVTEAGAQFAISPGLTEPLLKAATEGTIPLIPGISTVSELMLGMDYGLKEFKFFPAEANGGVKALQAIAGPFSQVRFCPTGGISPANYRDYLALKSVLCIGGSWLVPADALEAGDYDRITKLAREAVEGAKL

Turning to `O=C(O)[C@H](O)[C@@H](O)[C@H](O)[C@H](O)COP(=O)(O)O` [6-PG], the LCMS/MS product assay entry in assay [1] was “E. coli EDD catalyzed the expected dehydration of 6-PG to KDPG”.
`O=P(O)(O)OC[C@H]1OC(O)(COP(=O)(O)O)[C@@H](O)[C@@H]1O` (stereo partly drawn) [D-fructose-1,6-bisphosphate]: the Km in assay [2] was determined as 1260 µM.
As to `CC(C)(O)[C@@H](O)C(=O)O` [DIV], the LCMS/MS product assay result in assay [3] was “soybean and E. coli DHAD both converted DIV to its corresponding dehydration product”.
In the case of `O=C(O)C(=O)C[C@H](O)[C@H](O)COP(=O)(O)O` [KDPG], in assay [4], the “LCMS/MS and GC-MS product assay” value was “enzymatic assay of soybean and E. coli EDA when KDPG was supplied as substrate”. In assay [2], the Km is 310 µM.

In general, Km refers to the substrate concentration at which the rate is half of its maximum.
